The supplement of paper PMC11451515

Experiments:
Settings in all cases: 48 h
[1] = tested on: NOMO1; assay: cell viability relative to DMSO control; higher = less cytotoxic
In short: (§1)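 Library compounds in DMSO were pin-dosed into 1536-well plates (5 μl) holding NOMO1 or SEM (500 cells/well) or P12-Ichikawa (1000 cells/well) leukemia cells, across an 11-point threefold series of 47 μM to 0.79 nM. Each cell line had been adapted for at least four passages in each medium. CellTiter-Glo One luminescence was read after 48 h at 37°C. Viability is the per-plate percentage relative to DMSO wells, with cell-free wells as background.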

[2] = tested on: P12-Ichikawa; assay: as above
In short: as §1

[3] = tested on: SEM cells; assay: as above
In short: as §1

[4] = tested on: NOMO1; assay: AUC of viability dose-response curve (% viability x log10 dose units); higher = less sensitive
In short: (§2)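 Leukemia cells adapted to each medium (500 or 1000 cells/well, 1536-well plates) were exposed to library compounds in DMSO for 48 h at 37°C at 11 threefold doses, 47 μM to 0.79 nM. Luminescence by CellTiter-Glo One was normalised per plate to DMSO and cell-free wells, then fitted with a four-parameter log-logistic curve on log10 dose. Curves above full viability were scaled and quality-control failures removed before area under the curve was integrated by trapezoidal rule.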

[5] = tested on: P12-Ichikawa; assay: as above
In short: as §2

[6] = tested on: SEM cells; assay: as above
In short: as §2

CCCCC(F)(F)[C@@]1(O)CC[C@H]2[C@@H](CC(=O)[C@@H]2CCCCCCC(=O)O)O1
cell viability [%]
Settings | [1] | [2] | [3]
HPLM + 10% dialyzed FBS, 0.000781 µM | – | 128 | 120
HPLM + 10% dialyzed FBS, 0.00234 µM | – | 123 | 124
HPLM + 10% dialyzed FBS, 0.00702 µM | – | 120 | 123
HPLM + 10% dialyzed FBS, 0.0211 µM | – | 124 | 121
HPLM + 10% dialyzed FBS, 0.0632 µM | – | 122 | 112
HPLM + 10% dialyzed FBS, 0.19 µM | – | 116 | 110
HPLM + 10% dialyzed FBS, 0.569 µM | – | 117 | 118
HPLM + 10% dialyzed FBS, 1.71 µM | – | 103 | 116
HPLM + 10% dialyzed FBS, 5.12 µM | – | 108 | 101
HPLM + 10% dialyzed FBS, 15.4 µM | – | 111 | 91.6
HPLM + 10% dialyzed FBS, 46.1 µM | – | 113 | 98.6
RPMI 5 mM glucose + 10% FBS, 0.000781 µM | 123 | – | –
RPMI 5 mM glucose + 10% FBS, 0.00234 µM | 123 | – | –
RPMI 5 mM glucose + 10% FBS, 0.00702 µM | 126 | – | –
RPMI 5 mM glucose + 10% FBS, 0.0211 µM | 115 | – | –
RPMI 5 mM glucose + 10% FBS, 0.0632 µM | 118 | – | –
RPMI 5 mM glucose + 10% FBS, 0.19 µM | 117 | – | –
RPMI 5 mM glucose + 10% FBS, 0.569 µM | 115 | – | –
RPMI 5 mM glucose + 10% FBS, 1.71 µM | 108 | – | –
RPMI 5 mM glucose + 10% FBS, 5.12 µM | 121 | – | –
RPMI 5 mM glucose + 10% FBS, 15.4 µM | 111 | – | –
RPMI 5 mM glucose + 10% FBS, 46.1 µM | 103 | – | –

AUC of viability dose-response curve
Settings | [4] | [5] | [6]
HPLM + 10% dialyzed FBS | 446 | 451 | 455
RPMI 5 mM glucose + 10% FBS | 447 | 444 | 459
RPMI 5 mM glucose + 10% dialyzed FBS | 411 | 456 | 456

O=C(Nc1cccc2c(=O)cc(-c3nnn[nH]3)oc12)c1ccc(OCCCCc2ccccc2)cc1
cell viability [%]
Settings | [1] | [2] | [3]
HPLM + 10% dialyzed FBS, 0.000781 µM | 75.4 | 86.7 | 68.3
HPLM + 10% dialyzed FBS, 0.00234 µM | 80.8 | 84.2 | 78.5
HPLM + 10% dialyzed FBS, 0.00702 µM | 104 | 90.4 | 85.2
HPLM + 10% dialyzed FBS, 0.0211 µM | 107 | 93.9 | 91.3
HPLM + 10% dialyzed FBS, 0.0632 µM | 100 | 101 | 84.6
HPLM + 10% dialyzed FBS, 0.19 µM | 110 | 94.8 | 91.2
HPLM + 10% dialyzed FBS, 0.569 µM | 94.1 | 90 | 93
HPLM + 10% dialyzed FBS, 1.71 µM | 102 | 96 | 96
HPLM + 10% dialyzed FBS, 5.12 µM | 95 | 96.9 | 93.8
HPLM + 10% dialyzed FBS, 15.4 µM | 83.9 | 101 | 21.4
HPLM + 10% dialyzed FBS, 46.1 µM | 8.37 | 15.5 | 49.2
RPMI 5 mM glucose + 10% FBS, 0.000781 µM | 73.4 | 81 | 76.6
RPMI 5 mM glucose + 10% FBS, 0.00234 µM | 81.2 | 84.9 | 97.5
RPMI 5 mM glucose + 10% FBS, 0.00702 µM | 85.2 | 99.9 | 87
RPMI 5 mM glucose + 10% FBS, 0.0211 µM | 84.6 | 91.8 | 86.6
RPMI 5 mM glucose + 10% FBS, 0.0632 µM | 84.4 | 95.7 | 92.1
RPMI 5 mM glucose + 10% FBS, 0.19 µM | 93.7 | 89.4 | 90.7
RPMI 5 mM glucose + 10% FBS, 0.569 µM | 90.1 | 88.9 | 91.9
RPMI 5 mM glucose + 10% FBS, 1.71 µM | 88.6 | 91 | 86.6
RPMI 5 mM glucose + 10% FBS, 5.12 µM | 79 | 87.6 | 88.4
RPMI 5 mM glucose + 10% FBS, 15.4 µM | 81.5 | 80 | 17.2
RPMI 5 mM glucose + 10% FBS, 46.1 µM | 10.5 | 54.6 | 13.5
RPMI 5 mM glucose + 10% dialyzed FBS, 0.000781 µM | 82.8 | 73.1 | 70.8
RPMI 5 mM glucose + 10% dialyzed FBS, 0.00234 µM | 95.1 | 80.4 | 90.5
RPMI 5 mM glucose + 10% dialyzed FBS, 0.00702 µM | 91.7 | 87 | 105
RPMI 5 mM glucose + 10% dialyzed FBS, 0.0211 µM | 97.5 | 88.7 | 96.2
RPMI 5 mM glucose + 10% dialyzed FBS, 0.0632 µM | 94.1 | 86.7 | 99.6
RPMI 5 mM glucose + 10% dialyzed FBS, 0.19 µM | 88.9 | 92.5 | 92.6
RPMI 5 mM glucose + 10% dialyzed FBS, 0.569 µM | 94.4 | 85.1 | 102
RPMI 5 mM glucose + 10% dialyzed FBS, 1.71 µM | 83.3 | 81.6 | 79.9
RPMI 5 mM glucose + 10% dialyzed FBS, 5.12 µM | 80.3 | 85.5 | 92.8
RPMI 5 mM glucose + 10% dialyzed FBS, 15.4 µM | 73.7 | 85.4 | 19.2
RPMI 5 mM glucose + 10% dialyzed FBS, 46.1 µM | 22.8 | 21.7 | 33.2

AUC of viability dose-response curve
Settings | [4] | [5] | [6]
HPLM + 10% dialyzed FBS | 433 | 424 | 378
RPMI 5 mM glucose + 10% FBS | 384 | 416 | 371
RPMI 5 mM glucose + 10% dialyzed FBS | 404 | 389 | 392

CC(C)N(CCCNC(=O)Nc1ccc(C(C)(C)C)cc1)C[C@H]1O[C@@H](n2cc(Br)c3c(N)ncnc32)[C@H](O)[C@@H]1O
cell viability [%]
Settings | [1] | [2] | [3]
HPLM + 10% dialyzed FBS, 0.000781 µM | 98.3 | 85.8 | 87.3
HPLM + 10% dialyzed FBS, 0.00234 µM | 101 | 89.9 | 99.8
HPLM + 10% dialyzed FBS, 0.00702 µM | 112 | 92.2 | 96.6
HPLM + 10% dialyzed FBS, 0.0211 µM | 84.5 | 93 | 98.8
HPLM + 10% dialyzed FBS, 0.0632 µM | 105 | 97 | 105
HPLM + 10% dialyzed FBS, 0.19 µM | 106 | 94 | 101
HPLM + 10% dialyzed FBS, 0.569 µM | 110 | 97.9 | 85.1
HPLM + 10% dialyzed FBS, 1.71 µM | 95.1 | 88 | 98.4
HPLM + 10% dialyzed FBS, 5.12 µM | 85.4 | 81.4 | 104
HPLM + 10% dialyzed FBS, 15.4 µM | 71.4 | 77.8 | 72.4
HPLM + 10% dialyzed FBS, 46.1 µM | 9.86 | 13.8 | 18
RPMI 5 mM glucose + 10% FBS, 0.000781 µM | 80 | 87.3 | 83.1
RPMI 5 mM glucose + 10% FBS, 0.00234 µM | 96.3 | 91.6 | 98.3
RPMI 5 mM glucose + 10% FBS, 0.00702 µM | 88.7 | 90.8 | 115
RPMI 5 mM glucose + 10% FBS, 0.0211 µM | 87.8 | 86.1 | 104
RPMI 5 mM glucose + 10% FBS, 0.0632 µM | 86 | 87.1 | 114
RPMI 5 mM glucose + 10% FBS, 0.19 µM | 80.8 | 87.2 | 109
RPMI 5 mM glucose + 10% FBS, 0.569 µM | 92.2 | 91.5 | 106
RPMI 5 mM glucose + 10% FBS, 1.71 µM | 80.9 | 85.8 | 104
RPMI 5 mM glucose + 10% FBS, 5.12 µM | 94.2 | 87.1 | 77.4
RPMI 5 mM glucose + 10% FBS, 15.4 µM | 73.8 | 74 | 77.2
RPMI 5 mM glucose + 10% FBS, 46.1 µM | 31.8 | 47.2 | 17.1
RPMI 5 mM glucose + 10% dialyzed FBS, 0.000781 µM | 86.4 | 83.5 | 67.2
RPMI 5 mM glucose + 10% dialyzed FBS, 0.00234 µM | 81.3 | 90 | 92.6
RPMI 5 mM glucose + 10% dialyzed FBS, 0.00702 µM | 93.6 | 89.6 | 98.9
RPMI 5 mM glucose + 10% dialyzed FBS, 0.0211 µM | 105 | 88.3 | 92.5
RPMI 5 mM glucose + 10% dialyzed FBS, 0.0632 µM | 90.1 | 85.4 | 89.7
RPMI 5 mM glucose + 10% dialyzed FBS, 0.19 µM | 86.3 | 88.6 | 91.4
RPMI 5 mM glucose + 10% dialyzed FBS, 0.569 µM | 81.6 | 91.8 | 87.7
RPMI 5 mM glucose + 10% dialyzed FBS, 1.71 µM | 82.2 | 80.1 | 80.2
RPMI 5 mM glucose + 10% dialyzed FBS, 5.12 µM | 90.5 | 85.4 | 83.5
RPMI 5 mM glucose + 10% dialyzed FBS, 15.4 µM | 68.8 | 68.9 | 78.9
RPMI 5 mM glucose + 10% dialyzed FBS, 46.1 µM | 26.2 | 39.2 | 26.3

AUC of viability dose-response curve
Settings | [4] | [5] | [6]
HPLM + 10% dialyzed FBS | 433 | 409 | 433
RPMI 5 mM glucose + 10% FBS | 397 | 405 | 434
RPMI 5 mM glucose + 10% dialyzed FBS | 398 | 395 | 397
